Assay results reported in US10456407B2, “Combination therapy for treating cancer” (Epizyme, Inc., priority 2015, dated 2019).
“And” between values parts separate entries of the source, which are not always exact repeats. Equal entries are not always repeated.

Tested on: DOHH2 cells
Experiment: RT2 Glucocorticoid signaling PCR array, DOHH2 cell line (Table 4b)
Type: cell-based
Settings: DOHH2, 4 days

## C[C@]12C=CC(=O)C=C1CC[C@@H]1[C@@H]2[C@@H](O)C[C@@]2(C)[C@H]1CC[C@]2(O)C(=O)CO [Prednisolone, prednisolone]
  ACTB Ct Values: 14.721
  ADARB1 Ct Values: 33.560
  AFF1 Ct Values: 23.992
  AK2 Ct Values: 20.262
  AMPD3 Ct Values: 27.535
  ANGPTL4 Ct Values: 31.538
  ANXA4 Ct Values: 24.997
  ARID68 Ct Values: 23.885
  ASPH Ct Values: 23.369
  ATF4 Ct Values: 19.313
  B2M Ct Values: 18.884
  BCL6 Ct Values: 21.801
  BMPER Ct Values: 39.378
  CEBPA Ct Values: 32.188
  CEBPB Ct Values: 24.317
  COL4A2 Ct Values: 38.993
  CREB1 Ct Values: 22.890
  CREB3 Ct Values: 24.865
  CREB3L4 Ct Values: 24.616
  CTGF Ct Values: 33.728
  CYB561 Ct Values: 39.582
  DDIT4 Ct Values: 24.105
  DUSP1 Ct Values: 27.866
  EDN1 Ct Values: 32.263
  EHD3 Ct Values: 31.098
  ERRFI1 Ct Values: 32.635
  FK8PS Ct Values: 20.912
  FOSL2 Ct Values: 31.543
  GAPDH Ct Values: 16.551
  GDPD1 Ct Values: 27.884
  GHRHR Ct Values: 36.095
  GLUL Ct Values: 34.574
  GOT1 Ct Values: 23.532
  H6PD Ct Values: 24.696
  HNRPLL Ct Values: 33.284
  HPRT1 Ct Values: 21.777
  IL1RN Ct Values: 33.560
  IL6 Ct Values: 34.758
  KLF9 Ct Values: 28.547
  KLF13 Ct Values: 22.546
  LOX Ct Values: 34.158
  MERTK Ct Values: 32.892
  NFKBIA Ct Values: 22.830
  NR3C1 Ct Values: 22.794
  PDCD7 Ct Values: 23.552
  PDGFRB Ct Values: 34.934
  PDP1 Ct Values: 25.682
  PER1 Ct Values: 25.142
  PER2 Ct Values: 24.159
  PIK3R1 Ct Values: 23.850
  PLD1 Ct Values: 37.120
  PLEKHF1 Ct Values: 29.414
  POU2F1 Ct Values: 24.648
  POU2F2 Ct Values: 22.489
  RASA3 Ct Values: 27.803
  RGS2 Ct Values: 25.514
  RHOB Ct Values: 33.162
  RPLP0 Ct Values: 15.128
  SESN1 Ct Values: 22.839
  SGK1 Ct Values: 29.628
  SLC10A6 Ct Values: 36.176
  SLC19A2 Ct Values: 25.455
  SLC22A5 Ct Values: 28.915
  SNTA1 Ct Values: 25.124
  SPHK1 Ct Values: 29.971
  SPSB1 Ct Values: 26.911
  STAT5A Ct Values: 23.565
  STAT5B Ct Values: 22.632
  TBL1XR1 Ct Values: 21.304
  TNF Ct Values: 31.956
  TSC22D3 Ct Values: 23.310
  USP2 Ct Values: 23.501
  USPS4 Ct Values: 26.683
  VDR Ct Values: 26.847
  VLDLR Ct Values: 28.584
  ZFP36 Ct Values: 24.270
  ZHX3 Ct Values: 24.418
  ZNF281 Ct Values: 23.828
Array control, three lines
  PPC Ct Values: 18.684 and 18.699 and 19.076
  RTC Ct Values: 21.449 and 21.464 and 21.483
Normalized to B2M
  ADARB1 ΔCT (B2M): 14.676
  AFF1 ΔCT (B2M): 5.108
  AK2 ΔCT (B2M): 1.378
  AMPD3 ΔCT (B2M): 8.651
  ANGPTL4 ΔCT (B2M): 12.654
  ANXA4 ΔCT (B2M): 6.113
  ARID68 ΔCT (B2M): 5.001
  ASPH ΔCT (B2M): 4.485
  ATF4 ΔCT (B2M): 0.429
  B2M ΔCT (B2M): 0.000
  BCL6 ΔCT (B2M): 2.917
  BMPER ΔCT (B2M): 20.494
  CEBPA ΔCT (B2M): 13.304
  CEBPB ΔCT (B2M): 5.433
  COL4A2 ΔCT (B2M): 20.109
  CREB1 ΔCT (B2M): 4.006
  CREB3L4 ΔCT (B2M): 5.732
  CREB3 ΔCT (B2M): 5.981
  CTGF ΔCT (B2M): 14.844
  CYB561 ΔCT (B2M): 20.698
  DDIT4 ΔCT (B2M): 5.221
  DUSP1 ΔCT (B2M): 8.982
  EDN1 ΔCT (B2M): 13.379
  EHD3 ΔCT (B2M): 12.214
  ERRFI1 ΔCT (B2M): 13.751
  FK8PS ΔCT (B2M): 2.028
  FOSL2 ΔCT (B2M): 12.659
  GAPDH ΔCT (B2M): −2.333
  GDPD1 ΔCT (B2M): 9.000
  GHRHR ΔCT (B2M): 17.211
  GLUL ΔCT (B2M): 15.690
  GOT1 ΔCT (B2M): 4.648
  H6PD ΔCT (B2M): 6.085
  HNRPLL ΔCT (B2M): 14.400
  HPRT1 ΔCT (B2M): 2.893
  IL1RN ΔCT (B2M): 14.676
  IL6 ΔCT (B2M): 19.457
  KLF9 ΔCT (B2M): 9.663
  KLF13 ΔCT (B2M): 3.662
  LOX ΔCT (B2M): 15.274
  MERTK ΔCT (B2M): 14.008
  NFKBIA ΔCT (B2M): 3.946
  NR3C1 ΔCT (B2M): 3.910
  PDCD7 ΔCT (B2M): 4.668
  PDGFRB ΔCT (B2M): 16.050
  PDP1 ΔCT (B2M): 6.798
  PER1 ΔCT (B2M): 6.258
  PER2 ΔCT (B2M): 5.275
  PIK3R1 ΔCT (B2M): 4.966
  PLD1 ΔCT (B2M): 18.236
  PLEKHF1 ΔCT (B2M): 10.530
  POU2F1 ΔCT (B2M): 5.764
  POU2F2 ΔCT (B2M): 3.605
  RASA3 ΔCT (B2M): 8.919
  RGS2 ΔCT (B2M): 6.630
  RHOB ΔCT (B2M): 14.278
  RPLP0 ΔCT (B2M): −3.756
  SESN1 ΔCT (B2M): 3.955
  SGK1 ΔCT (B2M): 10.744
  SLC10A6 ΔCT (B2M): 17.292
  SLC19A2 ΔCT (B2M): 6.571
  SLC22A5 ΔCT (B2M): 10.031
  SNTA1 ΔCT (B2M): 6.240
  SPHK1 ΔCT (B2M): 11.087
  SPSB1 ΔCT (B2M): 8.027
  STAT5A ΔCT (B2M): 5.001
  STAT5B ΔCT (B2M): 3.748
  TBL1XR1 ΔCT (B2M): 2.420
  TNF ΔCT (B2M): 13.072
  TSC22D3 ΔCT (B2M): 4.426
  USP2 ΔCT (B2M): 4.617
  USPS4 ΔCT (B2M): 7.799
  VDR ΔCT (B2M): 7.963
  VLDLR ΔCT (B2M): 9.700
  ZFP36 ΔCT (B2M): 5.386
  ZHX3 ΔCT (B2M): 5.534
  ZNF281 ΔCT (B2M): 4.944
Normalized to B2M, array control, three lines
  RTC ΔCT (B2M): 2.565 and 2.580 and 2.599
Vs DMSO
  ADARB1 ΔΔCT: 1.867
  AFF1 ΔΔCT: −0.567
  AK2 ΔΔCT: 0.053
  AMPD3 ΔΔCT: 1.259
  ANGPTL4 ΔΔCT: 0.529
  ANXA4 ΔΔCT: 0.305
  ARID68 ΔΔCT: 0.129
  ASPH ΔΔCT: 0.524
  ATF4 ΔΔCT: 0.282
  BCL6 ΔΔCT: 0.397
  BMPER ΔΔCT: 1.466
  CEBPA ΔΔCT: −2.341
  CEBPB ΔΔCT: 0.531
  COL4A2 ΔΔCT: 6.804
  CREB1 ΔΔCT: 0.085
  CREB3L4 ΔΔCT: 0.336
  CREB3 ΔΔCT: 0.061
  CTGF ΔΔCT: 0.142
  CYB561 ΔΔCT: 1.917
  DDIT4 ΔΔCT: 0.296
  DUSP1 ΔΔCT: 0.387
  EDN1 ΔΔCT: 1.155
  EHD3 ΔΔCT: −1.092
  ERRFI1 ΔΔCT: 0.235
  FK8PS ΔΔCT: −0.948
  FOSL2 ΔΔCT: −0.099
  GDPD1 ΔΔCT: 0.477
  GHRHR ΔΔCT: −1.464
  GLUL ΔΔCT: −1.434
  GOT1 ΔΔCT: 0.230
  H6PD ΔΔCT: 0.377
  HNRPLL ΔΔCT: 3.085
  KLF9 ΔΔCT: −0.019
  KLF13 ΔΔCT: −0.280
  LOX ΔΔCT: 0.721
  MERTK ΔΔCT: 0.020
  NFKBIA ΔΔCT: 0.064
  NR3C1 ΔΔCT: 0.317
  PDCD7 ΔΔCT: 0.021
  PDP1 ΔΔCT: −0.056
  PER1 ΔΔCT: 0.323
  PER2 ΔΔCT: −0.358
  PIK3R1 ΔΔCT: −0.202
  PLD1 ΔΔCT: 0.207
  PLEKHF1 ΔΔCT: −0.347
  POU2F1 ΔΔCT: 0.395
  POU2F2 ΔΔCT: 0.145
  RASA3 ΔΔCT: 0.776
  RGS2 ΔΔCT: 0.849
  RHOB ΔΔCT: 0.626
  SESN1 ΔΔCT: −1.262
  SGK1 ΔΔCT: 2.120
  SLC10A6 ΔΔCT: 1.818
  SLC19A2 ΔΔCT: −0.020
  SLC22A5 ΔΔCT: 0.648
  SNTA1 ΔΔCT: 0.665
  SPHK1 ΔΔCT: −0.581
  SPSB1 ΔΔCT: −0.074
  STAT5A ΔΔCT: −0.227
  STAT5B ΔΔCT: 0.254
  TBL1XR1 ΔΔCT: 0.032
  TNF ΔΔCT: 0.753
  TSC22D3 ΔΔCT: −1.741
  USP2 ΔΔCT: −0.478
  USPS4 ΔΔCT: 0.209
  VDR ΔΔCT: −0.434
  VLDLR ΔΔCT: 1.543
  ZFP36 ΔΔCT: 0.225
  ZHX3 ΔΔCT: −0.657
  ZNF281 ΔΔCT: −0.113
